pKi: −log10 of the molar value.
Target: human NK-3 receptor (Homo sapiens (Human), UniProt P29371)
Experiment: 3H-SB222200 binding competition assay with human NK-3 receptor
Conditions: 3H-SB222200 displacement, CHO cell membranes expressing human NK3 receptor; read-out: Ki range
Summary of the method: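 Radioligand displacement: 5 nM tritiated SB222200 competed by varying compound concentrations on recombinant CHO membranes bearing human NK3, buffer pH 7.4 with HEPES, NaCl, CaCl2, MgCl2, BSA and saponin. Filter-bound radioactivity quantified; calculated Ki given as ranges from +++ (<500 nM) to # (>5 μM).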

human NK-3 receptor, sequence (P29371 whole entry): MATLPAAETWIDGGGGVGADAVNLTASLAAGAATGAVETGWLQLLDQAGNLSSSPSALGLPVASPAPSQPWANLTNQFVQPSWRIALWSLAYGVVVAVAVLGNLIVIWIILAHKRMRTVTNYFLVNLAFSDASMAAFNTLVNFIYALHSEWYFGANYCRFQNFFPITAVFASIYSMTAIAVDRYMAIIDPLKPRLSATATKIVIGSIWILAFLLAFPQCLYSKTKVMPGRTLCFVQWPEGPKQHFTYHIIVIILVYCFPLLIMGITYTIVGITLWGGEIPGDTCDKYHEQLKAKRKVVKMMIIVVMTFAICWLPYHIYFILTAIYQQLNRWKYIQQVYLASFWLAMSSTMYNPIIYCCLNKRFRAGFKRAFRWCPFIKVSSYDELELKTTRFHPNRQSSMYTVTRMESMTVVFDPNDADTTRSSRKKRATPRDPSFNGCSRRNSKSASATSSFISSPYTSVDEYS

SMILES | pKi
O=C(c1ccc(-c2ccccc2)cc1)N1CCn2c(nnc2-c2nc(-c3ccc(F)cc3)no2)C1 [Compound 204, [1,1′-biphenyl]-4-yl(3-(3-(4-fluorophenyl)-1,2,4-oxadiazol-5-yl)-5,6-dihydro-[1,2,4]triazolo[4,3-a]pyrazin-7(8H)-yl)methanone] | > 6.30
O=C(c1ccc(F)cc1)N1CCn2c(nnc2-c2noc(-c3ccccc3)n2)C1 [Compound 173, (4-fluorophenyl)(3-(5-phenyl-1,2,4-oxadiazol-3-yl)-5,6-dihydro-[1,2,4]triazolo[4,3-a]pyrazin-7(8H)-yl)methanone] | > 6.30
C[C@H]1c2nnc(-c3ccc4ccccc4n3)n2CCN1C(=O)c1ccc(F)cc1 [Compound 162, (S)-(4-fluorophenyl)(8-methyl-3-(quinolin-2-yl)-5,6-dihydro-[1,2,4]triazolo[4,3-a]pyrazin-7(8H)-yl)methanone] | > 6.30
O=C(c1ccc(F)cc1)N1CCn2c(nnc2-c2csc(-c3cccs3)n2)C1 [Compound 193, (4-fluorophenyl)(3-(2-(thiophen-2-yl)thiazol-4-yl)-5,6-dihydro-[1,2,4]triazolo[4,3-a]pyrazin-7(8H)-yl)methanone] | > 6.30
O=C(c1ccc(-c2cccs2)cc1)N1CCn2c(nnc2-c2csc(CS(=O)(=O)c3ccc(Cl)cc3)n2)C1 [Compound 198, (3-(2-(((4-chlorophenyl)sulfonyl)methyl)thiazol-4-yl)-5,6-dihydro-[1,2,4]triazolo[4,3-a]pyrazin-7(8H)-yl)(4-(thiophen-2-yl)phenyl)methanone] | 5.30 to 6.00
CC1c2nnc(-c3csc(-c4ccc(F)cc4)n3)n2CCN1C(=O)c1ccc(-c2ccccc2)cc1 (centres unmarked) [Compound 76, [1,1′-biphenyl]-4-yl(3-(2-(4-fluorophenyl)thiazol-4-yl)-8-methyl-5,6-dihydro-[1,2,4]triazolo[4,3-a]pyrazin-7(8H)-yl)methanone] | > 6.30
O=C(c1ccc(-c2cccs2)cc1)N1CCn2c(nnc2-c2csc(-c3cccs3)n2)C1 [Compound 194, (4-(thiophen-2-yl)phenyl)(3-(2-(thiophen-2-yl)thiazol-4-yl)-5,6-dihydro-[1,2,4]triazolo[4,3-a]pyrazin-7(8H)-yl)methanone] | > 6.30
C[C@@H]1c2nnc(-c3csc(N4CCOCC4)n3)n2CCN1C(=O)c1ccc(-c2ccc(F)cc2)cc1 [Compound 134, (R)-(4′-fluoro-[1,1′-biphenyl]-4-yl)(8-methyl-3-(2-morpholinothiazol-4-yl)-5,6-dihydro-[1,2,4]triazolo[4,3-a]pyrazin-7(8H)-yl)methanone] | > 6.30
COCCn1nc(-c2ccccc2)cc1-c1nnc2n1CCN(C(=O)c1ccc(-c3cccs3)cc1)C2 [Compound 254, (3-(1-(2-methoxyethyl)-3-phenyl-1H-pyrazol-5-yl)-5,6-dihydro-[1,2,4]triazolo[4,3-a]pyrazin-7(8H)-yl)(4-(thiophen-2-yl)phenyl)methanone] | > 6.30
O=C(c1ccc(F)cc1)N1CCn2c(nnc2-c2csc(-c3ccc(N4CCCC4)cc3)n2)C1 [Compound 246, (4-fluorophenyl)(3-(2-(4-(pyrrolidin-1-yl)phenyl)thiazol-4-yl)-5,6-dihydro-[1,2,4]triazolo[4,3-a]pyrazin-7(8H)-yl)methanone] | > 6.30
O=C(c1ccc(-c2cccs2)cc1)N1CCn2c(nnc2-c2csc(-c3ccccc3OCCO)n2)C1 [Compound 281, (3-(2-(2-(2-hydroxyethoxy)phenyl)thiazol-4-yl)-5,6-dihydro-[1,2,4]triazolo[4,3-a]pyrazin-7(8H)-yl)(4-(thiophen-2-yl)phenyl)methanone] | > 6.30
O=C(c1ccc(F)cc1)N1CCn2c(nnc2-c2nc3c(s2)CCCC3)C1 [Compound 27, (4-fluorophenyl)(3-(4,5,6,7-tetrahydrobenzo[d]thiazol-2-yl)-5,6-dihydro-[1,2,4]triazolo[4,3-a]pyrazin-7(8H)-yl)methanone] | > 6.30
O=C(c1ccc(-c2ccc(F)cc2)cc1)N1CCn2c(nnc2-c2nc(-c3ccccc3)no2)C1 [Compound 223, (4′-fluoro-[1,1′-biphenyl]-4-yl)(3-(3-phenyl-1,2,4-oxadiazol-5-yl)-5,6-dihydro-[1,2,4]triazolo[4,3-a]pyrazin-7(8H)-yl)methanone] | > 6.30
COc1ccccc1-c1nc(-c2nnc3n2CCN(C(=O)c2ccc(-c4cccs4)cc2)C3)cs1 [Compound 202, (3-(2-(2-methoxyphenyl)thiazol-4-yl)-5,6-dihydro-[1,2,4]triazolo[4,3-a]pyrazin-7(8H)-yl)(4-(thiophen-2-yl)phenyl)methanone] | > 6.30
CC1c2nnc(-c3csc(-c4ccccc4)n3)n2CCN1C(=O)c1ccc(F)cc1 (centres unmarked) [Compound 166, (4-fluorophenyl)(8-methyl-3-(2-phenylthiazol-4-yl)-5,6-dihydro-[1,2,4]triazolo[4,3-a]pyrazin-7(8H)-yl)methanone] | > 6.30
O=C(c1ccc(-c2cccs2)cc1)N1CCn2c(nnc2-c2noc(-c3ccccc3)n2)C1 [Compound 171, (3-(5-phenyl-1,2,4-oxadiazol-3-yl)-5,6-dihydro-[1,2,4]triazolo[4,3-a]pyrazin-7(8H)-yl)(4-(thiophen-2-yl)phenyl)methanone] | > 6.30
O=C(c1ccc(-c2cccs2)cc1)N1CCn2c(nnc2-c2nc(-c3ccc(F)cc3F)no2)C1 [Compound 185, (3-(3-(2,4-difluorophenyl)-1,2,4-oxadiazol-5-yl)-5,6-dihydro-[1,2,4]triazolo[4,3-a]pyrazin-7(8H)-yl)(4-(thiophen-2-yl)phenyl)methanone] | < 5.30
O=C(c1ccc(-c2cccs2)cc1)N1CCn2c(nnc2-c2nc(-c3ccccc3)no2)C1 [Compound 174, (3-(3-phenyl-1,2,4-oxadiazol-5-yl)-5,6-dihydro-[1,2,4]triazolo[4,3-a]pyrazin-7(8H)-yl)(4-(thiophen-2-yl)phenyl)methanone] | > 6.30
CC1c2nnc(-c3coc(-c4ccccc4)n3)n2CCN1C(=O)c1ccc(F)cc1 (centres unmarked) [Compound 48, (4-fluorophenyl)(8-methyl-3-(2-phenyloxazol-4-yl)-5,6-dihydro-[1,2,4]triazolo[4,3-a]pyrazin-7(8H)-yl)methanone] | > 6.30
O=C(c1ccc(F)cc1)N1CCn2c(nnc2-c2csc(-c3ccccc3O)n2)C1 [Compound 271, (4-fluorophenyl)(3-(2-(2-hydroxyphenyl)thiazol-4-yl)-5,6-dihydro-[1,2,4]triazolo[4,3-a]pyrazin-7(8H)-yl)methanone] | > 6.30
O=C(c1ccccc1)N1CCn2c(nnc2-c2ccccn2)C1 [Compound 231, phenyl(3-(pyridin-2-yl)-5,6-dihydro-[1,2,4]triazolo[4,3-a]pyrazin-7(8H)-yl)methanone] | 5.30 to 6.00
CC1c2nnc(-c3csc(-c4ccc(F)cc4)n3)n2CCN1C(=O)c1ccc(C#N)cc1 (centres unmarked) [Compound 216, 4-(3-(2-(4-fluorophenyl)thiazol-4-yl)-8-methyl-5,6,7,8-tetrahydro-[1,2,4]triazolo[4,3-a]pyrazine-7-carbonyl)benzonitrile] | > 6.30
O=C(c1ccc(-c2ccsc2)cc1)N1CCn2c(nnc2-c2csc(-c3ccccc3)n2)C1 [Compound 63, (3-(2-phenylthiazol-4-yl)-5,6-dihydro-[1,2,4]triazolo[4,3-a]pyrazin-7(8H)-yl)(4-(thiophen-3-yl)phenyl)methanone] | > 6.30

Source: patent US10544150B2, “NK-3 receptor selective antagonist compounds, pharmaceutical composition and methods for use in NK-3 receptors mediated disorders” (Ogeda SA, priority 2010, dated 2020)
